Measurements: ChEMBL document CHEMBL1201862, “PubChem BioAssay data set” (2004)
Where a name gives a salt, the structure may show the parent alone.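 A five-concentration, 48-hour dose response in 96-well plates underlies each endpoint, interpolated linearly between surrounding concentrations. Here, GI50 denotes the concentration required for 50% inhibition of growth.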 The source made the active and inactive calls. Rule as the data show it: active = GI50 up to about 1.1 µM and inactive = higher.

Key:
Experiment in all cases: inhibition of tumour cell growth, NCI panel, 48 h
UO-31 = system: UO-31
COLO 205 = system: COLO 205
SW-620 = system: SW-620
TK-10 = system: TK-10
KM12 = system: KM12
M14 = system: M14
SK-MEL-5 = system: SK-MEL-5
ACHN = system: ACHN
UACC-62 = system: UACC-62
SF-295 = system: SF-295
SF-539 = system: SF-539
OVCAR-8 = system: OVCAR-8
EKVX = system: EKVX
MCF7 = system: MCF7
HOP-62 = system: HOP-62
HT-29 = system: HT-29
UACC-257 = system: UACC-257
OVCAR-5 = system: OVCAR-5
HCT-15 = system: HCT-15
CCRF-CEM = system: CCRF-CEM

SMILES | GI50 (UO-31) | GI50 (COLO 205) | GI50 (SW-620) | GI50 (TK-10) | GI50 (KM12) | GI50 (M14) | GI50 (SK-MEL-5) | GI50 (ACHN) | GI50 (UACC-62) | GI50 (SF-295) | GI50 (SF-539) | GI50 (OVCAR-8) | GI50 (EKVX) | GI50 (MCF7) | GI50 (HOP-62) | GI50 (HT-29) | GI50 (UACC-257) | GI50 (OVCAR-5) | GI50 (HCT-15) | GI50 (CCRF-CEM)
CC(=O)C1(Cc2cccc3ccccc23)S(=O)(=O)OCCOS1(=O)=O | 15.8 µM (inactive) | 17 µM (inactive) | 18.3 µM (inactive) | 17.3 µM (inactive) | 15.4 µM (inactive) | 23.4 µM (inactive) | 12.2 µM (inactive) | 18.7 µM (inactive) | 14.6 µM (inactive) | 0.843 µM (active) | 17.9 µM (inactive) | 19.5 µM (inactive) | 18.5 µM (inactive) | 20.8 µM (inactive) | 20.9 µM (inactive) | 17.5 µM (inactive) | 4.11 µM (inactive) | 17.6 µM (inactive) | 19.2 µM | 38.7 µM (inactive)
C=C(C[C@@H](O)[C@H](C)NC(=O)OCc1ccccc1)C(=O)OC(C)(C)C | > 100 µM (inactive) | > 100 µM (inactive) | 39.7 µM (inactive) | > 100 µM (inactive) | > 100 µM (inactive) | > 100 µM (inactive) | 26.1 µM (inactive) | > 100 µM (inactive) | 51.2 µM (inactive) | 89.1 µM (inactive) | 50 µM (inactive) | 66.8 µM (inactive) | 76.6 µM (inactive) | 61.7 µM (inactive) | > 100 µM (inactive) | > 100 µM (inactive) | 32.1 µM (inactive) | > 100 µM (inactive) | > 100 µM | 17.3 µM (inactive)
CC(C)=CCc1c2c(c(O)c3c(=O)c4c(oc13)-c1ccc(O)cc1OC4C=C(C)C)C=CC(C)(C)O2 (stereo not given) | 18.3 µM (inactive) | 21 µM (inactive) | 8.32 µM (inactive) | 14.8 µM (inactive) | 8.04 µM (inactive) | 18 µM (inactive) | 14.8 µM (inactive) | 11.8 µM (inactive) | 13.7 µM (inactive) | 14.6 µM (inactive) | 17.2 µM (inactive) | 13.3 µM (inactive) | 14.9 µM (inactive) | 13.5 µM (inactive) | 14.2 µM (inactive) | 13 µM (inactive) | 15.4 µM (inactive) | 20.2 µM (inactive) | 7.5 µM | 3.99 µM (inactive)
CCN(CC)CCOC(NC(C)=O)(c1ccccc1)c1ccccc1 | > 100 µM (inactive) | > 100 µM (inactive) | > 100 µM (inactive) | > 100 µM (inactive) | > 100 µM (inactive) | > 100 µM (inactive) | > 100 µM (inactive) | > 100 µM (inactive) | > 100 µM (inactive) | > 100 µM (inactive) | > 100 µM (inactive) | > 100 µM (inactive) | > 100 µM (inactive) | > 100 µM (inactive) | > 100 µM (inactive) | > 100 µM (inactive) | > 100 µM (inactive) | > 100 µM (inactive) | > 100 µM | > 100 µM (inactive)
Nc1nc(Cl)c(N)c(NC23CC4CC(CC(C4)C2)C3)n1 | 1.69 µM (inactive) | 1.58 µM (inactive) | 1.51 µM (inactive) | 2.38 µM (inactive) | 1.73 µM (inactive) | 1.36 µM (inactive) | 1.72 µM (inactive) | 1.78 µM (inactive) | 1.63 µM (inactive) | 2.78 µM (inactive) | 2.16 µM (inactive) | 2.55 µM (inactive) | 2.18 µM (inactive) | 1.68 µM (inactive) | 1.87 µM (inactive) | 1.79 µM (inactive) | 2.36 µM (inactive) | 1.4 µM (inactive) | 1.73 µM | 1.62 µM (inactive)
COc1ccc2c(c1)CCc1c(CO)c(COC(=O)NC(C)C)n(C)c1-2 | 4.97 µM (inactive) | 2.09 µM (inactive) | 3.74 µM (inactive) | 14.6 µM (inactive) | 6.61 µM (inactive) | 6.11 µM (inactive) | 4.51 µM (inactive) | 3.83 µM (inactive) | 5.6 µM (inactive) | 9.35 µM (inactive) | 12.9 µM (inactive) | 3.33 µM (inactive) | 22.9 µM (inactive) | 9.79 µM (inactive) | 24 µM (inactive) | 3.14 µM (inactive) | 4.42 µM (inactive) | 24.2 µM (inactive) | 13 µM | 2.64 µM (inactive)
C/C(=N\Nc1nc2ccccc2[nH]1)c1ccc2ccccc2n1 | 1.06 µM (active) | 3.15 µM (inactive) | 3.58 µM (inactive) | 3.04 µM (inactive) | 2.08 µM (inactive) | 1.24 µM (inactive) | 1.46 µM (inactive) | 3.15 µM (inactive) | 2.6 µM (inactive) | 2.49 µM (inactive) | 3.27 µM (inactive) | 3.33 µM (inactive) | 0.678 µM (active) | 2.17 µM (inactive) | 2.78 µM (inactive) | 0.948 µM (active) | 3.55 µM (inactive) | 2.25 µM (inactive) | 1.29 µM | 1.05 µM (active)
Nc1ncn([C@H]2C[C@H](O)[C@@H](CO)O2)c(=O)n1 [DECITABINE] | 298 µM (inactive) | 37.7 µM (inactive) | 29 µM (inactive) | 46.8 µM (inactive) | 72.6 µM (inactive) | 9.59 µM (inactive) | 74.6 µM (inactive) | 21.5 µM (inactive) | 83.8 µM (inactive) | 102 µM (inactive) | 92 µM (inactive) | 16.9 µM (inactive) | 104 µM (inactive) | 74.8 µM (inactive) | 111 µM (inactive) | 51.3 µM (inactive) | 34.9 µM (inactive) | 106 µM (inactive) | 2.77 µM | 4.59 µM (inactive)
CNNCc1ccc(C(=O)NC(C)C)cc1 [PROCARBAZINE HYDROCHLORIDE] | > 500 µM (inactive) | > 500 µM (inactive) | > 500 µM (inactive) | > 500 µM (inactive) | > 500 µM (inactive) | > 500 µM (inactive) | 385 µM (inactive) | > 500 µM (inactive) | 366 µM (inactive) | > 500 µM (inactive) | > 500 µM (inactive) | > 500 µM (inactive) | > 500 µM (inactive) | > 486 µM (inactive) | 383 µM (inactive) | > 474 µM (inactive) | 450 µM (inactive) | > 439 µM (inactive) | > 415 µM | 461 µM (inactive)
